These results are taken from patent US5990158A, “Carboxylic acid derivatives, method of manufacturing the same and therapeutic agents containing these compounds” (Kotobuki Seiyaku Co., Ltd., priority 1996, dated 1999).

One experiment deals with T1, MMP-2 (gelatinase A) (Homo sapiens, UniProt P08253).
T1 construct: made in house; host or cells: COS-1 cells transfected with human pro-MMP-2 cDNA (secreted into culture medium)
T1 sequence (P08253 110-660): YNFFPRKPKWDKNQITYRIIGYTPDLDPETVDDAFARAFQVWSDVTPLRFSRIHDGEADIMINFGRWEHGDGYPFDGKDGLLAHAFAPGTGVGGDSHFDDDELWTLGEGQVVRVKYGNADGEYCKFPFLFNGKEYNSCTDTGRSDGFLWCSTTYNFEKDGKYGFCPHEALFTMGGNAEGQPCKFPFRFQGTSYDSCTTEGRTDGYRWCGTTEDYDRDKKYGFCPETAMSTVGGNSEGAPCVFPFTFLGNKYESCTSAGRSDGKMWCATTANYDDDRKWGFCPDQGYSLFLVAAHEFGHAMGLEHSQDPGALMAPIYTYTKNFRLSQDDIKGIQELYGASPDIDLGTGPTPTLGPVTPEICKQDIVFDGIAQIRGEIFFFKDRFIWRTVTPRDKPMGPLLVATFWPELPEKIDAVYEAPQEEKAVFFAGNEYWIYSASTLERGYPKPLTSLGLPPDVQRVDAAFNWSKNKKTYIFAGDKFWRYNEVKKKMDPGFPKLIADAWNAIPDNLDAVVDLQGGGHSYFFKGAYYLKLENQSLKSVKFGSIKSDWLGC
As to the kind of experiment: MMP-2 (gelatinase A) inhibitory activity, FITC-labeled type IV collagen degradation. Type of experiment: biochemical. The following applies: 50% inhibition of collagen type IV degradation; activated pro MMP-2 from transfected COS-1 cells; 42° C., 4 h. The protocol: (§1) Experiment 2: MMP-2 (gelatinase A) and MMP-9 (gelatinase B) inhibitory activities.
(§2) Pro MMP-2 was obtained from culture medium separated from human pro-MMP-2 cDNA tranfected COS-1 cells. It was activated by 1 mM (p-aminophenyl)mercury acetic acid, and MMP-9, derived human fibrosarcome,was purchased from Yagai Co. Ltd. Inhibition of both enzyme activities were estimated by enzyme assay using type IV collagenase activity assay kit (Yagai Co. Ltd., Biswaz, C. et al., J. Cell.Biochem., 28, 39 (1984)). MMP-2 or MMP-9 (0.01 U/ml), test compound (several concentrations), and FITC-labeled type IV collagen (derived bovine placenta, 25 μg) were incubated in 100 μl of 0.05M Tris - HCl buffer (pH 7.5) containing 200 mM NaCl and 5 mM CaCl2 at 42° C. for 4 h. Inhibitory activity of compound was evaluated by same as that of MMP-1 assay. Unchanged type IV collagen was precipitated by centrifugation, and the degradation percent of substrate was calculated by comparison with a fluorescence intensity of heat denatured substrate as 100%. Inhibition of enzyme activity was expressed as an IC50 value which was the concentration of test compound necessary to produce 50% inhibition of collagen type IV degradation by enzyme.

Another experiment addresses T2, MMP-9 (gelatinase B) (Homo sapiens, UniProt P14780).
T2 construct: purchased Yagai Co. Ltd; host or cells: human fibrosarcoma
As to the kind of experiment: MMP-9 (gelatinase B) inhibitory activity, FITC-labeled type IV collagen degradation. Type of experiment: biochemical. The following applies: 50% inhibition of collagen type IV degradation; MMP-9 derived from human fibrosarcoma; 42° C., 4 h. Here is the method: as §1, §2

The structures appear in SMILES notation.

T2 sequence (P14780 94-707): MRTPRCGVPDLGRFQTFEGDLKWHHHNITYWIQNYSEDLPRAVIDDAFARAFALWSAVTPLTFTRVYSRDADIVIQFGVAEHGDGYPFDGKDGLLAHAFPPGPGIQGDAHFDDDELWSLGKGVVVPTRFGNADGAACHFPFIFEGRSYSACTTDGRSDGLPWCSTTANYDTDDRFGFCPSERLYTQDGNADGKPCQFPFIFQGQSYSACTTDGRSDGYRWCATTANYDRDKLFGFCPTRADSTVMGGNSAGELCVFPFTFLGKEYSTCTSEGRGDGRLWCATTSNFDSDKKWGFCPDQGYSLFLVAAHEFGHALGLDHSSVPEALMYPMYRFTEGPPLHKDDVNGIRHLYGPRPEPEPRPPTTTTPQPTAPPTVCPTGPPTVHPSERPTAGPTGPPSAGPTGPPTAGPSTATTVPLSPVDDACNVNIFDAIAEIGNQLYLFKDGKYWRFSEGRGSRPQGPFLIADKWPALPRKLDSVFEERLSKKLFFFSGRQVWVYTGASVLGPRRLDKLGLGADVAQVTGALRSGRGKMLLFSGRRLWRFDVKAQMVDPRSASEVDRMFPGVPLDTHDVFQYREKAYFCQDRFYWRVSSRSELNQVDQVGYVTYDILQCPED

For `CNC(=O)[C@H](Cc1ccccc1)NC(=O)[C@H](CCc1ccc2cccccc1-2)CC(=O)NO` [Compound 32, N-[(2R)-2-(2'-Hydroxyamino-2'-oxo-ethyl)-4-(azulene-1-yl)-butyloyl]-L-phenylanine N-Methylamide], the IC50 on MMP-2 (gelatinase A) stood at 3200 nM; on MMP-9 (gelatinase B), 400 nM.

With `CNC(=O)[C@H](Cc1ccc(OC)cc1)NC(=O)[C@H](CCc1ccc2cccccc1-2)CC(=O)NO` [Compound 33, (2S)-2-[(2R)-2-(2'-Hydroxyamino-2'-oxo-ethyl)-4-(azulene-1-yl)butyloyl]amino-3-(4-methoxy)phenylpropanoylmethylamide], the IC50 turned out to be 160 nM against MMP-2 (gelatinase A) and 18 nM at MMP-9 (gelatinase B).

For the compound `CNC(=O)[C@@H](NC(=O)[C@H](CCc1ccc2cccccc1-2)CC(=O)NO)C(C)(C)C` [Compound 34, N-[(2R)-2-(2'-Hydroxyamino-2'-oxo-ethyl)-4-(azulene-1-yl)-butyloyl]-L-tert-leucine N-Methylamide], the IC50 at MMP-2 (gelatinase A) came to 760 nM; at MMP-9 (gelatinase B), 52 nM.

As for `CNC(=O)[C@H](Cc1ccccc1)NC(=O)[C@H](CCCc1ccc2cccccc1-2)CC(=O)NO` [Compound 35, N-[(2R)-2-(2'-Hydroxyamino-2'-oxo-ethyl)-5-(azulene-1-yl)-pentanoyl]-L-phenylalanine N-Methylamide], the IC50 came out at 1300 nM against MMP-2 (gelatinase A) and 2500 nM against MMP-9 (gelatinase B).

As for `CCOc1ccc(C[C@H](NC(=O)[C@H](CCc2ccc3cccccc2-3)CC(=O)NO)C(=O)NC)cc1` [Compound 36, (2S)-2-[(2R)-2-(2'-Hydroxyamino-2'-oxo-ethyl)-4-(azulene-1-yl)butyloyl]amino-3-(4-ethoxy)phenylpropanoylmethylamide], the IC50 against MMP-2 (gelatinase A) amounted to 180 nM; against MMP-9 (gelatinase B) it was 24 nM.

In the case of `CNC(=O)[C@H](Cc1ccccc1)NC(=O)[C@H](CCCCc1ccc2cccccc1-2)CC(=O)NO` [Compound 37, N-[(2R)-2-(2'-Hydroxyamino-2'-oxo-ethyl)-6-(azulene-1-yl)-hexanoyl]-L-phenylalanine N-Methylamide], the IC50 against MMP-2 (gelatinase A) was determined as 2700 nM; against MMP-9 (gelatinase B), 2900 nM.

`CNC(=O)[C@H](Cc1ccccc1)NC(=O)[C@H](CCOc1ccc(OC)cc1)CC(=O)NO` [Compound 38, N-[(2R)-2-(2'-Hydroxyamino-2'-oxo-ethyl)-4-[(4-methoxyphenyl)oxy]butyloyl]-L-phenylalanine N-Methylamide]: the IC50 is 13 nM against MMP-2 (gelatinase A) and 2.3 nM at MMP-9 (gelatinase B).

For the compound `CCOc1ccc(OCC[C@H](CC(=O)NO)C(=O)N[C@@H](Cc2ccccc2)C(=O)NC)cc1` [Compound 39, N-[(2R)-2-(2'-Hydroxyamino-2'-oxo-ethyl)-4-[(4-ethoxy-phenyl)oxy]butyloyl]-L-phenylalanine N-Methylamide], the values for the IC50 against MMP-2 (gelatinase A) and at MMP-9 (gelatinase B) were 8.8 nM and 1.4 nM, respectively.

On to `CNC(=O)[C@H](Cc1ccccc1)NC(=O)[C@H](CCCOc1ccc(OC)cc1)CC(=O)NO` [Compound 40, N-[(2R)-2-(2'-Hydroxyamino-2'-oxo-ethyl)-5-[(4-methoxyphenyl)oxy]pentanoyl]-L-phenylalanine N-Methylamide], for which the IC50 was 1 nM on MMP-2 (gelatinase A) and 0.18 nM against MMP-9 (gelatinase B).

In the case of `COc1ccc(OCCC[C@H](CC(=O)NO)C(=O)N[C@@H](Cc2ccccc2)C(=O)NC(C)(C)C)cc1` [Compound 41, N-[(2R)-2-(2'-Hydroxyamino-2'-oxo-ethyl)-5-[(4-methoxyphenyl)oxy]pentanoyl]-L-phenylalanine N-tert-Butylamide], the values for the IC50 against MMP-2 (gelatinase A) and at MMP-9 (gelatinase B) were 3.1 nM and 0.13 nM, respectively.

For the compound `COc1ccc(OCCC[C@H](CC(=O)NO)C(=O)N[C@@H](Cc2ccccc2)C(=O)NCCS(N)(=O)=O)cc1` [Compound 42, 2-[N-[(2R)-2-(2'-Hydroxyamino-2'-oxo-ethyl)-5-[(4-methoxyphenyl)oxy]pentanoyl]-L-phenylalanyl]amino-ethanesulfonamide], the values for the IC50 against MMP-2 (gelatinase A) and at MMP-9 (gelatinase B) were 0.36 nM and 0.051 nM, respectively.

A word on the IC50: it is the concentration at which inhibition is half-maximal.
